Experimental data taken from ChEMBL document CHEMBL1121820, “Synthesis and antitumor activity of simple vinyl and alpha-methylene-gamma-butyrolactone sulfonate esters and silyl enol ethers” (1981).

What was measured:
P388 [1] = experiment: Compound was studied in P388 test system for the antitumor activity expressed as number of animals survived/Number of animals tested at a dose of 100 mg/kg; 6/6; format: functional, Mus musculus
P388 [2] = experiment: Compound was studied in P388 test system for the antitumor activity expressed as percent maximum life span of animals at a dose of 100 mg/kg; format: functional; details: Mus musculus
P388 [3] = experiment: Compound was studied in P388 test system for the antitumor activity expressed as number of animals survived/Number of animals tested at a dose of 50 mg/kg; 6/6; format: functional, Mus musculus
P388 [4] = experiment: Compound was studied in P388 test system for the antitumor activity expressed as percent maximum life span of animals at a dose of 50 mg/kg; format: functional; details: Mus musculus
P388 [5] = experiment: Compound was studied in P388 test system for the antitumor activity expressed as number of animals survived/Number of animals tested at a dose of 200 mg/kg; 6/6; format: functional, Mus musculus
P388 [6] = experiment: Compound was studied in P388 test system for the antitumor activity expressed as percent maximum life span of animals at a dose of 200 mg/kg; format: functional; details: Mus musculus
P388 [7] = experiment: Compound was studied in P388 test system for the antitumor activity expressed as number of animals survived/Number of animals tested at a dose of 400 mg/kg; 5/5; format: functional, Mus musculus
P388 [8] = experiment: Compound was studied in P388 test system for the antitumor activity expressed as percent maximum life span of animals at a dose of 400 mg/kg; format: functional; details: Mus musculus
P388 [9] = experiment: Compound was studied in P388 test system for the antitumor activity expressed as number of animals survived/Number of animals tested at a dose of 100 mg/kg; 5/6; format: functional, Mus musculus
L1210 [10] = experiment: Compound was studied in L1210 leukemia test system for the antitumor activity expressed as percent maximum life span of animals at dose of 25 mg/kg; format: functional; details: Mus musculus
P388 [11] = experiment: Compound was studied in P388 test system for the antitumor activity expressed as percent maximum life span of animals at dose of 37.5 mg/kg; format: functional; details: Mus musculus
L1210 [12] = experiment: Compound was studied in L1210 leukemia test system for the antitumor activity expressed as number animals survived/Number of animals tested at dose of 25 mg/kg; 5/6; format: functional, Mus musculus
P388 [13] = experiment: Compound was studied in P388 test system for the antitumor activity expressed as number of animals survived/Number of animals tested at dose of 37.5 mg/kg; 6/6; format: functional, Mus musculus
P388 [14] = experiment: Compound was studied in P388 test system for the antitumor activity expressed as number of animals survived/Number of animals tested at dose of 50 mg/kg; 6/6; format: functional, Mus musculus
P388 [15] = experiment: Compound was studied in P388 test system for the antitumor activity expressed as percent maximum life span of animals at dose of 25 mg/kg; format: functional; details: Mus musculus
L1210 [16] = experiment: Compound was studied in L1210 leukemia test system for the antitumor activity expressed as percent maximum life span of animals at dose of 50 mg/kg; format: functional; details: Mus musculus
L1210 [17] = experiment: Compound was studied in L1210 leukemia test system for the antitumor activity expressed as number animals survived/Number of animals tested at dose of 50 mg/kg; 6/6; format: functional, Mus musculus
P388 [18] = experiment: Compound was studied in P388 test system for the antitumor activity expressed as number of animals survived/Number of animals tested at dose of 25 mg/kg; 6/6; format: functional, Mus musculus
Mus musculus [19] = experiment: Compound was studied in CD8F test system for the antitumor activity expressed as percent maximum life span of animals at dose of 25 mg/kg; format: functional
L1210 [20] = experiment: Compound was studied in L1210 leukemia test system for the antitumor activity expressed as percent maximum life span of animals at dose of 200 mg/kg; format: functional; details: Mus musculus
L1210 [21] = experiment: Compound was studied in L1210 leukemia test system for the antitumor activity expressed as number animals survived/Number of animals tested at dose of 200 mg/kg; 10/10; format: functional, Mus musculus
Mus musculus [22] = experiment: Compound was studied in CD8F test system for the antitumor activity expressed as number of animals survived/Number of animals tested at dose of 25 mg/kg; 10/10
L1210 [23] = experiment: Compound was studied in L1210 leukemia test system for the antitumor activity expressed as number animals survived/Number of animals tested at dose of 200 mg/kg; 6/6; format: functional, Mus musculus
B16 [24] = experiment: Compound was studied in B16 test system for the antitumor activity expressed as percent maximum life span of animals at dose of 200 mg/kg; format: functional; details: Mus musculus
Mus musculus [25] = experiment: Compound was studied in CD8F test system for the antitumor activity expressed as percent maximum life span of animals at dose of 250 mg/kg; format: functional
P388 [26] = experiment: Compound was studied in P388 test system for the antitumor activity expressed as number of animals survived/Number of animals tested at 200 mg/kg; 6/6; format: functional, Mus musculus
P388 [27] = experiment: Compound was studied in P388 test system for the antitumor activity expressed as percent maximum life span of animals; format: functional, Mus musculus
B16 [28] = experiment: Compound was studied in B16 test system for the antitumor activity expressed as number of animals survived/Number of animals tested at dose of 200 mg/kg; […]; format: functional, Mus musculus
[29] = test system: Lewis lung carcinoma cell line; experiment: Compound was studied in LL test system for the antitumor activity expressed as percent maximum life span of animals at dose of 12.5 mg/kg; format: functional; details: Mus musculus
L1210 [30] = experiment: Compound was studied in L1210 leukemia test system for the antitumor activity expressed as percent maximum life span of animals at dose of 400 mg/kg; format: functional; details: Mus musculus
L1210 [31] = experiment: Compound was studied in L1210 leukemia test system for the antitumor activity expressed as number animals survived/Number of animals tested at dose of 400 mg/kg; 6/6; format: functional, Mus musculus
[32] = test system: Lewis lung carcinoma cell line; experiment: Compound was studied in LL test system for the antitumor activity expressed as number of animals survived/Number of animals tested at dose of 12.5 mg/kg; 10/10; format: functional, Mus musculus
Mus musculus [33] = experiment: Compound was studied in CD8F test system for the antitumor activity expressed as number of animals survived/Number of animals tested at dose of 250 mg/kg; 10/10; format: functional
P388 [34] = experiment: Compound was studied in P388 test system for the antitumor activity expressed as percent maximum life span of animals at dose of 50 mg/kg; format: functional; details: Mus musculus
L1210 [35] = experiment: Compound was studied in L1210 leukemia test system for the antitumor activity expressed as number of animals survived/Number of animals tested at dose of 25 mg/kg; 5/6; format: functional, Mus musculus
P388 [36] = experiment: Compound was studied in P388 test system for the antitumor activity expressed as number of animals survived/Number of animals tested at a dose of 200 mg/kg; 5/6; format: functional, Mus musculus
L1210 [37] = experiment: Compound was studied in L1210 leukemia test system for the antitumor activity expressed as percent maximum life span of animals at dose of 22.5 mg/kg; format: functional; details: Mus musculus
L1210 [38] = experiment: Compound was studied in L1210 leukemia test system for the antitumor activity expressed as number of animals survived/Number of animals tested at dose of 22.5 mg/kg; 6/6; format: functional, Mus musculus
P388 [39] = experiment: Compound was studied in P388 test system for the antitumor activity expressed as number of animals survived/Number of animals tested at dose of 120 mg/kg; 6/6; format: functional, Mus musculus
P388 [40] = experiment: Compound was studied in P388 test system for the antitumor activity expressed as percent maximum life span of animals at dose of 120 mg/kg; format: functional; details: Mus musculus

## CC(C)=C(C)OS(=O)(=O)C(F)(F)F
P388 [1]
  Ratio: 6
P388 [2]
  ILS at 100 mg/kg: 14%

## CC(C)=COS(=O)(=O)C(F)(F)F
P388 [3]
  Ratio: 6
P388 [4]
  ILS at 50 mg/kg: -1%

## CC(C)=CO[Si](C)(C)C
P388 [5]
  Ratio: 6
P388 [6]
  ILS at 200 mg/kg: 14%

## O=S(=O)(OC1=CCCCCC1)C(F)(F)F
P388 [7]
  Ratio: 5
P388 [8]
  ILS at 400 mg/kg: 15%

## C[Si](C)(C)OC=C1CCCCC1
P388 [1]
  Ratio: 6
P388 [2]
  ILS at 100 mg/kg: 22%

## O=S(=O)(OC(=C(c1ccccc1)c1ccccc1)c1ccccc1)C(F)(F)F
P388 [1]
  Ratio: 6
P388 [2]
  ILS at 100 mg/kg: 16%

## C/C(=C\O[Si](C)(C)C)c1ccccc1
P388 [9]
  Ratio: 5
P388 [2]
  ILS at 100 mg/kg: 8%

## O=C1OCC/C1=C\OS(=O)(=O)C(F)(F)F
L1210 [10]
  ILS at 25 mg/kg: 6%
P388 [11]
  ILS at 37.5 mg/kg: 26%
L1210 [12]
  Ratio: 5
P388 [13]
  Ratio: 6

## CCOC1=CC(=O)/C(=C/O[Si](C)(C)C)CC1
P388 [14]
  Ratio: 6

## CC1(C)CC(=O)C=C(OS(=O)(=O)C(F)(F)F)C1
P388 [15]
  ILS at 25 mg/kg: 12%
L1210 [16]
  ILS at 50 mg/kg: 3%
L1210 [17]
  Ratio: 6
P388 [18]
  Ratio: 6

## C[Si](C)(C)O/C=C1\CCCCC1=O
Mus musculus [19]
  ILS at 25 mg/kg: 21%
L1210 [20]
  ILS at 200 mg/kg: 5%
L1210 [21]
  Ratio: 10
P388 [14]
  Ratio: 6
Mus musculus [22]
  Ratio: 1

## O=S(=O)(OC1=CCCCC1)C(F)(F)F
P388 [3]
  Ratio: 6
P388 [4]
  ILS at 50 mg/kg: 14%

## O=C1O[C@@H]2CCCCC2/C1=C/OS(=O)(=O)C(F)(F)F (stereo partly specified)
L1210 [20]
  ILS at 200 mg/kg: 17%
L1210 [23]
  Ratio: 6

## C[Si](C)(C)O/C=C1\CCOC1=O
B16 [24]
  ILS at 200 mg/kg: 6%
Mus musculus [25]
  ILS at 250 mg/kg: 42%
P388 [26]
  Ratio: 6
P388 [27]
  ILS: 25%
B16 [28]
  Ratio: 10
[29]
  ILS at 12.5 mg/kg: 16%
L1210 [30]
  ILS at 400 mg/kg: 12%
L1210 [31]
  Ratio: 6
[32]
  Ratio: 10
Mus musculus [33]
  Ratio: 10

## CS(=O)(=O)O/C=C1\CCOC1=O
L1210 [10]
  ILS at 25 mg/kg: 6%
P388 [34]
  ILS at 50 mg/kg: 32%
P388 [14]
  Ratio: 6
L1210 [35]
  Ratio: 5

## O=S(=O)(OC=C1CCCCC1)C(F)(F)F
P388 [36]
  Ratio: 5
P388 [6]
  ILS at 200 mg/kg: 12%

## CS(=O)(=O)O/C=C1\C(=O)O[C@@H]2CCCCC12 (stereo partly specified)
L1210 [37]
  ILS at 22.5 mg/kg: 11%
L1210 [38]
  Ratio: 6
P388 [39]
  Ratio: 6
P388 [40]
  ILS at 120 mg/kg: 25%

## O=S(=O)(O/C1=C/CCCCCC1)C(F)(F)F
P388 [1]
  Ratio: 6
P388 [36]
  Ratio: 5
P388 [2]
  ILS at 100 mg/kg: 13%
P388 [6]
  ILS at 200 mg/kg: 14%
